Measured values as given in US20120282646A1, “METHOD FOR ACTIVATING A NATURAL KILLER CELL BY ADJUSTING THE EXPRESSION OF THE SOCS2 GENE” (Korea Research Institute of Bioscience and Biotechnology, priority 2009, published 2012).
Where a SMILES comes first, the peptide text is derived from it. The star is where a group is joined. Cbz = O=C(OCc1ccccc1)*

Experiments:
Assay type in all cases: cell-based, human
Pyk2 [1] = assay: Immunoprecipitation for ubiquitination of Pyk2 after IL-15 in NK-92 cells; conditions: NK-92 cells stimulated with IL-15, anti-Pyk2 immunoprecipitation
Experimental: To determine whether the decrease in p-Pyk2^Tyr402 by SOCS2 expression, confirmed in Example <13> resulted from the ubiquitin-mediated proteasomal degradation of p-Pyk2^Tyr402 by increased SOCS2 by IL-15, the following experiment was carried out. NK-92 cells stimulated with IL-15 as in Example <2-2> were lysed and the cell lysates were allowed to react with anti-Pyk2 antibody. The antigen-antibody complexes were precipitated by incubation at 4° C. for 1 day with G-protein-conjugated agarose. The immunoprecipitated complexes were washed with 1×PBS. Western blot analysis was performed by the same method in Example <2-1> using anti-ubiquitin antibody (Santa Cruz, U.S.A.), anti-SOCS2 antibody, anti-p-Pyk2^Tyr402 antibody, anti-Pyk2 antibody, and anti-GAPDH antibody.

NK-92 cells [2] = assay: Western blot of SOCS2 and p-Pyk2Tyr402 after IL-15 in NK-92 cells; conditions: IL-15 for 6, 12 or 24 hr
Experimental: (§1) Each NK cell was lysed in RIPA buffer (50 mM Tris-HCl, pH 7.4, 150 mM NaCl, 0.25% SDS, 1% NP-40, 1 mM EDTA, a protease inhibitor cocktail, and a phosphate inhibitor cocktail) and the concentration of protein present in the whole cell lysate was determined using BCA Protein Assay Kit (Pierce, U.S.A.). 30 μg of each protein sample was resolved using 10 or 12% SDS-PAGE gel and transferred to an Immobilon-P membrane (Millipore Corporation, U.S.A.). The membrane was blocked with 5% skim milk and treated with anti-SOCS2 antibody (Santa Cruz, U.S.A.) as a primary antibody for 1 day at 4° C. HRP-conjugated anti-rabbit secondary antibody (Santa Cruz, U.S.A.) was attached to the primary antibody-treated membrane, and then, Immobilon Western Chemiluminescent HRP Substrate (Milipore Corporation) was added thereto. The membrane was exposed to X-ray film. As quantitative control, the amount of expression of GAPDH was examined using anti-GAPDH primary antibody (Santa Cruz, U.S.A.) by the above method.
To assess how SOCS2 which binds with p-Pyk2^Tyr402 in NK cells regulates Pyk2, the following experiment was carried out. With NK-92 cells cultured without or with IL-15 for 6, 12 or 24 hr using the same method in Example <2-2>, Western blot analysis was carried out using the same method in Example <2-1> with anti-SOCS2 antibody, anti-p-Pyk2^Tyr402 antibody, anti-Pyk2 antibody and anti-GAPDH antibody. […]

primary NK cells [3] = assay: Western blot of SOCS2 and p-Pyk2Tyr402 after IL-15 in primary NK cells; conditions: primary NK cells with or without IL-15
Experimental: as §1
NK cells cultured without or with IL-15, Western blot analysis was carried out using the same method in Example <2-1> with anti-SOCS2 antibody, anti-p-Pyk2^Tyr402 antibody, anti-Pyk2 antibody and anti-GAPDH antibody.

NK-92 cells [4] = assay: socs2 mRNA expression by real time PCR in cytokine-treated NK-92 cells
Experimental: NK cell differentiation is mediated by IL-15 (Interleukin 15) cytokine. To determine whether the SOCS2 upregulation following NK cell differentiation was induced by IL-15, the present inventors experimented on the IL-15-induced SOCS2 upregulation in mature NK cells. The experimented NK-92 human NK cells and primary NK cells live and proliferate in the condition where IL-15 exists. Accordingly, to measure the effect of IL-15, deprivation of IL-15 was carried out by culturing cells in a medium without IL-15 for 24 hr prior to IL-15 treatment, and then the medium was replaced with a medium containing 10 ng/mL IL-15 to make a cell differentiation condition. Real time PCR was carried out with NK-92 cells at 4, 8, 12, and 16th hr after the replacement of the medium using the same method in Example <3-1-1> to measure the amount of socs2 mRNA expression.
Specifically, each NK cell was collected and total RNA was extracted using Trizol Reagent (Invitrogen, U.S.A.). Then, 1 μg of the RNA was reverse transcribed into cDNA using reverse transcriptase superscript II (Invitrogen). […] Concurrently, using GAPDH (Glyceraldehyde-3-phosphate dehydrogenase) as a quantitative control, real time PCR was performed with GAPDH primer pair of Table 2. […]

primary NK cells [5] = assay: socs1, socs2, socs3 mRNA expression by real time PCR in IL-15-stimulated primary NK cells; conditions: IL-15 stimulation after deprivation
Experimental: Deprivation and IL-15 stimulation was carried out with primary NK cells using the same method in Example <2-2>. The amounts of mRNA expression of socs1, socs2 and socs3 were measured by real time PCR. Primers in Table 1 and Table 3 were used.
Specifically, each NK cell was collected and total RNA was extracted using Trizol Reagent (Invitrogen, U.S.A.). Then, 1 μg of the RNA was reverse transcribed into cDNA using reverse transcriptase superscript II (Invitrogen). Using the cDNA as template, real time PCR was performed with the 2×SYBR Premix Ex Taq™ (TaKaRa, Japan) and SOCS2 primer pairs of Table 2 (Exicycler version 2, Bioneer, Republic of Korea). Concurrently, using GAPDH (Glyceraldehyde-3-phosphate dehydrogenase) as a quantitative control, real time PCR was performed with GAPDH primer pair of Table 2. The PCR condition was as follows: denaturation of 10 min at 95° C.; 40 cycles of […], 30 sec at 60° C., and 1 min at 72° C.; and extension of 8 min at 72° C. followed by cooling to room temperature. After analyzing real time PCR data by the comparative CT (2^−ΔΔCt) method which normalizes the amount of socs2 expression of each sample to the amount of GAPDH expression, the relative amount of SOCS2 expression in differentiated NK cells at each day to the amount of socs2 expression in primary NK cells was shown as a graph in FIG. 1(a).

[6] = tested on: NK-92 cells and primary NK cells; assay: SOCS2 protein expression by Western blot after IL-15 stimulation; conditions: IL-15 stimulation after deprivation
Experimental: as §1, with “method. […]” for “method.”

NK-92 cells [7] = assay: Cytotoxicity of MAPK inhibitor-treated NK-92 cells against K562; conditions: NK-92 cells treated with 10 mM inhibitor; compared with ERK and p38 inhibitors
Pyk2 [8] = assay: GST pull down of GST-SOCS2 and Flag-Pyk2 in 293T cells; conditions: MG132-containing medium vs general culture medium
Experimental: The GST expression vector and pFlag-Pyk2, or pGST-SOCS2 and pFlag-Pyk2 were cotransformed into 293T cells using Lipofectamin 2000 (Invitrogen, U.S.A.). After 4 hr of transformation, the medium was replaced to a general culture medium or MG132 (proteasome inhibitor)-containing medium, and […], cells were lysed. The each cell lysate was allowed to react with glutathione-sepharose bead (GE Healthcare, U.S.A.) at 4° C. for 4 hr. Western blot analysis was performed by the same method in Example <2-1> using anti-Flag primary antibody (Santa Cruz, U.S.A.) or anti-GST primary antibody (Santa Cruz, U.S.A.).

Pyk2 [9] = assay: Immunoprecipitation of Flag-Pyk2, GST-SOCS2 and HA-ubiquitin in 293T cells; conditions: MG132-containing medium vs general culture medium
Experimental: In order to determine whether SOCS2 inhibits the proteasome-mediated Pyk2 degradation or not, the following experiment was carried out. First of all, pGST-SOCS2, pFlag-Pyk2, and HA-ubiquitin (AddGene) were cotransformed into 293T cells using Lipofectamin 2000. After 4 hr of transformation, the medium was replaced to a general culture medium or MG132 (proteasome inhibitor)-containing medium, and 24 hr later, cells were lysed. The each cell lysate was allowed to react with anti-Flag antibody or anti-GST antibody. The antigen-antibody complexes were precipitated by incubation at 4° C. for 1 day with G-protein-conjugated agarose (Roshe, Switzerland). The immunoprecipitated complexes were washed with 1×PBS. Western blot analysis was performed by the same method in Example <2-1> using anti-GST antibody, anti-Flag antibody, or anti-HA antibody (Santa Cruz, U.S.A.).

primary NK cells [10] = assay: NK cell differentiation, CD-56 expression by FACS; conditions: primary NK cells transduced with siRNA, day 2, 3, 5, IL-15 stimulation
Experimental: Also, to determine whether the inhibition of SOCS2 expression affected the NK cell differentiation or not, primary NK cells were transduced with siRNA and CD-56 expression was measured by performing FACS on the cells at 2, 3, and 5th day.

SOCS2 = SOCS2 protein knockdown by siRNA, Western blot; conditions: primary NK cells transduced with siRNA, IL-15 stimulation 16 hr
Experimental: as §1
IL-15 is an essential cytokine for NK cell differentiation. With SOCS2 expression inhibited, the present inventors measured the NK cell differentiation by IL-15 stimulation. […] Concurrently, β-actin expression was also observed by using anti-β-actin primary antibody (Santa Cruz, U.S.A.) as a quantitative control.

Which results are given for “IL-15: cytokine priming NK cell differentiation (Peprotech)”?
phosphorylation of Pyk2 (Pyk2 [1]): phosphorylation of Pyk2 decreased; ubiquitination of Pyk2 (Pyk2 [1]): ubiquitination of Pyk2 increased; SOCS2 expression (NK-92 cells [2]): increased in an IL-15 stimulation time-dependent manner; phosphorylation of tyrosine 402 in Pyk2 (NK-92 cells [2]): decreased; expression of SOCS2 and phosphorylation of Pyk2 (primary NK cells [3]): induced the expression of SOCS2 and the decrease in the phosphorylation of Pyk2; SOCS2 expression (socs2 mRNA) (NK-92 cells [4]; NK-92 cells deprived of IL-15 24 hr, then 10 ng/mL IL-15, 4, 8, 12, 16 hr): SOCS2 expression increased in NK-92 cells; SOCS2 expression (mRNA), specificity among cytokines (NK-92 cells [4]; deprived NK-92 cells, 30 ng/mL IL7, IL-12, IL-15, IL-18, IL-21 for 16 hr): SOCS2 expression was induced specifically by IL-15 stimulation; mRNA expression of socs1, socs2 and socs3 (primary NK cells [5]): only socs2 mRNA expression among SOCS family members increased; SOCS2 protein expression [6]: IL-15 stimulated SOCS2 expression was observed in both NK-92 cells and primary NK cells

How did the “cytotoxicity against the K562 cancer cell line” value (NK-92 cells [7]) turn out when `Oc1c2ccccc2c2c3c(cccc13)N=N2` [JNK inhibitor, SP600125] was run?
Its value is “most significantly reduced”.

For `CC(C)C[C@@H](C=O)NC(=O)[C@H](CC(C)C)NC(=O)[C@H](CC(C)C)NC(=O)OCc1ccccc1` [MG132] (Cbz-Leu-Leu-Leu-aldehyde), which “Flag band (Flag-Pyk2) in GST pull down” value (Pyk2 [8]) is on record?
The value was “significantly large Flag band”.

What about the “GST band and HA (ubiquitin) bands in anti-Flag immunoprecipitate” value (Pyk2 [9]) of the same molecule?
The value was “significantly large GST band and more HA bands”.

For “SOCS2 siRNA: SOCS2 siRNA (Dharmacon, SEQ ID NO.12: 5′-CGACUACUAUGUUCAGAUG-3′) (listed as RNA, chemistry not given here)”, which “CD-56 expression (NK cell differentiation)” value (primary NK cells [10]) is on record?
Its value is “increased CD-56 expression similarly regardless of whether SOCS2 protein was expressed or not”.

And the SOCS2 protein expression (SOCS2)?
Its SOCS2 protein expression is “SOCS2 protein expression was inhibited”.
